Assay: Balance study: n-3 and n-6 PUFA balance (intake, excretion, accretion, metabolic consumption)
Type: in vivo, rat
Details: 24 h feces at 8 weeks postweaning, percentage of intake
Description: All procedures were performed in accordance with the policies set out by the Canadian Council on Animal Care and were approved by the Animal Ethics Committee at the University of Toronto. Three Long Evans dams each with 18-day-old male Long Evans pups were ordered from Charles River Laboratories (St. Constant, QC, Canada). Pups were nonlittermates and each dam was housed with pups. Upon arrival, dams were allocated to one of the three diets (described below). When the pups were 21 days old, two pups from each dam were euthanized by high-energy head-focused microwave fixation (4.5 kW for 0.9 s). Brains were removed immediately and stored at -80°C until lipid analysis. Bodies were also stored at -80°C immediately after euthanization until analysis. The brains and bodies of these pups were used to determine the PUFA content of the rats at weaning (i.e., baseline PUFA content). […] For the balance study, the rats were weighed, food intake was determined, and uneaten food was replaced with fresh food on a weekly basis. Rats were euthanized by CO2 asphyxiation. Brains were removed and dissected sagittally. Carcasses and one half brain per rat were stored immediately at -80°C (to be later analyzed for lipid content). […] For the steady-state infusion study and the brain DHA uptake study, a jugular vein catheter was surgically implanted into the rats. […] Carcasses were thawed overnight in a refrigerator at 3°C, cut into pieces, and passed through a #12 hand grinder. After the whole body had passed through the grinder once, the homogenate was mixed together by hand and passed at least one more time through the grinder until the mixture was sufficiently homogeneous. Due to the small size of the pups all of the 21-day-old pup bodies were passed through the grinder together. […] New chloroform was added to the remaining aqueous phase, the mixture was once again centrifuged, and the chloroform layer was extracted and added to the previously extracted chloroform layer. […] One hemisphere was thawed briefly and dissected over ice to separate the brainstem, cerebellum, cortex, hippocampus, striatum, and the rest of the brain. […] The homogenizer was then washed with methanol, which was then transferred to the test tube containing the homogenized brain and KCl. […] The chloroform layer was extracted and new chloroform was added to the aqueous phase. […] At 8 weeks postweaning all the feces produced by a rat in 24 h were collected. […] Mean PUFA excretion (percentage of intake) was determined and applied to all animals to determine PUFA excretion. […] Nu-Check Prep, Elysian, MN) was added to the TLE. […] Samples were injected in […] mode. The injector and detector ports were set at 250°C. […] The carrier gas was helium, set to a constant flow rate of 0.7 ml/min. Peaks were identified by retention times of authentic FAME standards (Nu-Chek Prep). […] The concentrations were expressed on a per gram basis then multiplied by total weight of the tissue to determine the total amount of each fatty acid in the tissue.

Dietary PUFA excreted in the feces: 0.5 ± 0.05%
Structure (SMILES): CCCCC/C=C\C/C=C\CCCCCCCC(=O)O [LNA, linoleic acid]

From article PMC3927474, “Whole body synthesis rates of DHA from α-linolenic acid are greater than brain DHA accretion and uptake rates in adult rats” (Journal of Lipid Research, 2014)
